# Entries after “also recorded” stand apart in the source; their conditions may differ. Marks after values point to notes of the source that are not given here.
# Tests used:
# [1] = biological target: T1, monoamine oxidase A (MAO-A, extracted) (Homo sapiens, UniProt P21397); experiment: biochemical
# T1 sequence (P21397 1-527): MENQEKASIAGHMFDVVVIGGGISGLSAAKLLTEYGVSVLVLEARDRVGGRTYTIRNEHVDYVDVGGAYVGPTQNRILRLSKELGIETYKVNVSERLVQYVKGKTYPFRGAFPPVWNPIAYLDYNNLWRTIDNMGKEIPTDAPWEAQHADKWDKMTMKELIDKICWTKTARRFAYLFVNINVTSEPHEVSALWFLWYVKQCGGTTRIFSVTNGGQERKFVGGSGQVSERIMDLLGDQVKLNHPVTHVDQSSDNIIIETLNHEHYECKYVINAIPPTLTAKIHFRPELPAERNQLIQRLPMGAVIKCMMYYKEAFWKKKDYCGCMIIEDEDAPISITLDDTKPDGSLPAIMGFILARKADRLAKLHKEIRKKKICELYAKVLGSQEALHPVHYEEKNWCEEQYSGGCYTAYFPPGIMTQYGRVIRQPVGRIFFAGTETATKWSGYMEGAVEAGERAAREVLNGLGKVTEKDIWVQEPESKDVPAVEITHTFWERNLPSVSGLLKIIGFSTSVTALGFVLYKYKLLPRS
# Method: (§1) Newly synthesized compounds were tested on monoamine oxidase A and B (extracted). […] Reaction mixture was composed of 100 μL of total assay volume having 30 μL buffer (pH 7.4), 10 μL test compounds, 10 μL of extracted enzyme (MAO-A: 13 μg mL^−1, MAO-B: 15 μg mL^−1), 30 μL of amplex red and 20 μL of substrate (p-tyramine). Initially reaction mixture having buffer + test compound + enzyme was incubated for 15 minutes for MAO-A And MAO-B. After Incubation the amplex red reagent was added followed by addition of substrate p-tyramine. The change in the fluorescence was determined by using fluorescence plate reader: FLUOstar® Omega (BMG Labtech GmbH, orten berg Germany). […] All experiments were performed in triplicate. IC50 values were calculated by non-linear curve fitting program PRISM 5.0 (GraphPad, San Diego, California, USA) where log inhibitor vs. response curve was generated.
# [2] = biological target: butyryl cholinesterase (BChE) (Homo sapiens, UniProt P06276); experiment: Butyryl cholinesterase inhibition assay; type: biochemical; conditions: for BChE %age inhibition: test concentration not given
# [3] = biological target: T1, monoamine oxidase A (MAO-A, extracted); conditions: for MAO-A %age inhibition: compounds not above 50% inhibition, test concentration not given
# [4] = biological target: T2, acetyl cholinesterase (AChE) (Homo sapiens, UniProt P22303); conditions: for AChE %age inhibition: test concentration not given
# [5] = biological target: T3, monoamine oxidase B (MAO-B, extracted) (Homo sapiens, UniProt P27338); conditions: for MAO-B %age inhibition: compounds not above 50% inhibition, test concentration not given
# T3 sequence (P27338 1-520): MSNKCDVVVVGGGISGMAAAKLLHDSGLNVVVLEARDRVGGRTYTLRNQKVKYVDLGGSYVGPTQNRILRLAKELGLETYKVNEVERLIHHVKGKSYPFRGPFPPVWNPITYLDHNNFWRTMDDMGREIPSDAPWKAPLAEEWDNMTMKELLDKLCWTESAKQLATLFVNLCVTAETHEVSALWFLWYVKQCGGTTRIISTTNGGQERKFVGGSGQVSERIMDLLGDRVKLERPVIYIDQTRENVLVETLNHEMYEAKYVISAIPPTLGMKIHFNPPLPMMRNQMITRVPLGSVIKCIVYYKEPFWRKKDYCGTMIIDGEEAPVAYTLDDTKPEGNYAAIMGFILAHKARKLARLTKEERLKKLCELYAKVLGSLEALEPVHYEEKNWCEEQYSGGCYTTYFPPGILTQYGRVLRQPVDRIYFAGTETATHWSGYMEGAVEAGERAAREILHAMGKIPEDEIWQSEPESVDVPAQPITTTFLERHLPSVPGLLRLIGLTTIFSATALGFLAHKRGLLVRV
# [6] = biological target: T3, monoamine oxidase B (MAO-B, extracted); experiment: biochemical
# Method: as §1
# [7] = biological target: T2, acetyl cholinesterase (AChE); experiment: biochemical
# T2 sequence (P22303 32-614, species assumed): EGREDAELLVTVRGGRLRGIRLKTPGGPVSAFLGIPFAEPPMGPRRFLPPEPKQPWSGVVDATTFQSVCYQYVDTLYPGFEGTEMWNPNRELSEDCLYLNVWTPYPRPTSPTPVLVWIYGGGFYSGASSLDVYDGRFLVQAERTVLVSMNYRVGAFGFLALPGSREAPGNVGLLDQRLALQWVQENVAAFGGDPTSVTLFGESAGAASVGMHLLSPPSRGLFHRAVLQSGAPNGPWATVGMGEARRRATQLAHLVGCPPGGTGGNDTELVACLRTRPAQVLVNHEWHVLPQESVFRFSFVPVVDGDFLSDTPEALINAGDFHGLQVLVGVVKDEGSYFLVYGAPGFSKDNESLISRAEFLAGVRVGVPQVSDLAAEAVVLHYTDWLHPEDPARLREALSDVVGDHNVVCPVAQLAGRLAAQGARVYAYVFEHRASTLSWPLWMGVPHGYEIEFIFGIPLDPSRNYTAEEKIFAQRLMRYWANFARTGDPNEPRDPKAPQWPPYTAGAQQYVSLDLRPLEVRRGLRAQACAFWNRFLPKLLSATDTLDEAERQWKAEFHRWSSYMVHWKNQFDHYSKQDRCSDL
# Sequence of butyryl cholinesterase (BChE) (P06276 29-602, species assumed): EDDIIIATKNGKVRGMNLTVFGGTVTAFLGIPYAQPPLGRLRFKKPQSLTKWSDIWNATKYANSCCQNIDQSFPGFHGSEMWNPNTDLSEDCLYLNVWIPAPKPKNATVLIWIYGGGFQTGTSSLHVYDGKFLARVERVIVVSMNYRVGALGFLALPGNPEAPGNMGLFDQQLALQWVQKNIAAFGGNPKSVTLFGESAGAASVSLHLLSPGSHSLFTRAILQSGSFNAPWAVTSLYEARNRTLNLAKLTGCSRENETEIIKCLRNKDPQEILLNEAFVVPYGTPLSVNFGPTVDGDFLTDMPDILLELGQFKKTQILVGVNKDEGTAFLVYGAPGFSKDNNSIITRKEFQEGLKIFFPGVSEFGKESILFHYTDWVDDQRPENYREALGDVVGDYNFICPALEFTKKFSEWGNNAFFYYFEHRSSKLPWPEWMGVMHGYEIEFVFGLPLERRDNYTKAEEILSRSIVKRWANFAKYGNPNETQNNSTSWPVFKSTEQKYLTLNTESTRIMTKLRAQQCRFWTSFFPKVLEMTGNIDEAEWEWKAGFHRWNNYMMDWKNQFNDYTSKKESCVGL
SMILES,IC50 [1],BChE %age inhibition [2],inhibition against MAO-A (in words) [3],inhibition against AChE (in words) [4],AChE %age inhibition [4],inhibition against MAO-B (in words) [5],IC50 [6],MAO-A %age inhibition [3],IC50 [7],MAO-B %age inhibition [5],inhibition against BChE (in words) [2]
"Cc1ccc(Nc2nnc(-c3ccncc3)o2)c(C)c1 [Compound 4k, N-(2,4-Dimethylphenyl)-5-(pyridin-4-yl)-1,3,4-oxadiazol-2-amine]",3460 ± 2580 nM,14.67% ^c,potent inhibition,moderate to weak inhibition; also recorded: lost its inhibitory effects,39.65% ^c,strong inhibition; also recorded: restored its inhibitory effects,1100 ± 1160 nM,,,,
"Cc1c(F)cccc1-c1nnc(Nc2ccccc2)o1 [Compound 4o, 5-(3-Fluoro-2-methylphenyl)-N-phenyl-1,3,4-oxadiazol-2-amine]",,32.98% ^c,,,,,,29.98 ^c %,2320 ± 80 nM,22.65 ^c %,
"N#Cc1cccc(Nc2nnc(Cc3ccccc3C(F)(F)F)o2)c1 [Compound 4b, 3-((5-(2-(Trifluoromethyl)benzyl)-1,3,4-oxadiazol-2-yl)amino)benzonitrile]",2860 ± 1510 nM,23.65% ^c,,moderate to weak inhibition,31.34% ^c,,,,,35.73 ^c %,
"c1ccc(Nc2nnc(-c3ccncc3)o2)cc1 [Compound 4d, N-Phenyl-5-(pyridin-4-yl)-1,3,4-oxadiazol-2-amine]",1440 ± 220 nM,23.67% ^c,potent inhibition; also recorded: promising inhibitory effects,,,strong inhibition; also recorded: promising inhibitory effects,,,,,
"Fc1cc(F)cc(Cc2nnc(Nc3ccc(F)cc3F)o2)c1 [Compound 4g, N-(2,4-Difluorophenyl)-5-(3,5-difluorobenzyl)-1,3,4-oxadiazol-2-amine]",1210 ± 40 nM,15.23% ^c,potent inhibition,,,strong inhibition,2020 ± 1260 nM,,1110 ± 80 nM,,
"Cc1ccccc1Nc1nnc(-c2ccccc2)o1 [Compound 4n, 5-Phenyl-N-(o-tolyl)-1,3,4-oxadiazol-2-amine]",,28.87% ^c,weak inhibition,,,,,21.07 ^c %,,18.47 ^c %,
"FC(F)(F)c1ccc(-c2nnc(Nc3ccc(Br)cc3)o2)cc1 [Compound 4l, N-(4-Bromophenyl)-5-(4-(trifluoromethyl)phenyl)-1,3,4-oxadiazol-2-amine]",,26.91% ^c,weak inhibition; also recorded: demolished the activity,moderate to weak inhibition; also recorded: demolished the activity,44.56% ^c,demolished the activity,,36.81 ^c %,,24.86 ^c %,demolished the activity
"N#Cc1cccc(Nc2nnc(-c3ccncc3)o2)c1 [Compound 4j, 3-((5-(Pyridin-4-yl)-1,3,4-oxadiazol-2-yl)amino)benzonitrile]",1020 ± 90 nM,20.55% ^c,potent inhibition,potent inhibition,,lost its inhibitory effects,,,1560 ± 309 nM,18.57 ^c %,
"Fc1cc(F)cc(Cc2nnc(Nc3ccccc3F)o2)c1 [Compound 4f, 5-(3,5-Difluorobenzyl)-N-(2-fluorophenyl)-1,3,4-oxadiazol-2-amine]",,22.61% ^c,weak inhibition,potent inhibition,,,,34.82 ^c %,2030 ± 434 nM,39.46 ^c %,
"Fc1ccccc1Nc1nnc(-c2ccc(C(F)(F)F)cc2)o1 [Compound 4i, N-(2-Fluorophenyl)-5-(4-(trifluoromethyl)phenyl)-1,3,4-oxadiazol-2-amine]",,21.45% ^c,weak inhibition,potent inhibition; also recorded: moderate to weak inhibition,37.12% ^c,,,38.11 ^c %,,32.53 ^c %,
"Fc1ccccc1Nc1nnc(Cc2ccccc2C(F)(F)F)o1 [Compound 4c, N-(2-Fluorophenyl)-5-(2-(trifluoromethyl)benzyl)-1,3,4-oxadiazol-2-amine]",1900 ± 250 nM,14.76% ^c,potent inhibition,,,strong inhibition,,,,,
"N#Cc1cccc(Nc2nnc(-c3ccc(C(F)(F)F)cc3)o2)c1 [Compound 4a, 3-((5-(4-(Trifluoromethyl)phenyl)-1,3,4-oxadiazol-2-yl)amino)benzonitrile]",,20.54% ^c,weak inhibition,moderate to weak inhibition,42.32% ^c,,,33.23 ^c %,,37.06 ^c %,
"CC(C)c1ccc(Nc2nnc(-c3ccc(C(F)(F)F)cc3)o2)cc1 [Compound 4m, N-(4-Isopropylphenyl)-5-(4-(trifluoromethyl)phenyl)-1,3,4-oxadiazol-2-amine]",110 ± 1 nM,15.78% ^c,potent inhibition,,,strong inhibition,,,,,
"Cc1ccc(F)c(-c2nnc(Nc3ccccc3F)o2)c1 [Compound 4h, 5-(2-Fluoro-5-methylphenyl)-N-(2-fluorophenyl)-1,3,4-oxadiazol-2-amine]",,12.43% ^c,weak inhibition,potent inhibition,,,,21.87 ^c %,1510 ± 462 nM,29.36 ^c %,
"Cc1ccc(Nc2nnc(-c3cccc(F)c3)o2)c(C)c1 [Compound 4e, N-(2,4-Dimethylphenyl)-5-(3-fluorophenyl)-1,3,4-oxadiazol-2-amine]",1470 ± 450 nM,10.54% ^c,potent inhibition,potent inhibition,,strong inhibition,1910 ± 890 nM,,1960 ± 176 nM,,
